Measured values reported in article PMC12198407, “Preclinical and first-in-human of purinostat mesylate, a novel selective HDAC I/IIb inhibitor, in relapsed/refractory multiple myeloma and lymphoma” (Signal Transduction and Targeted Therapy, 2025).
Where two headings read alike, the source gives them in different places. Values belong to the molecule of their own block, whether it stands above or below them.

Assays:
r/r MM = conditions: cited from earlier work
89 kinases = test: Kinase panel; assay type: biochemical; conditions: 1 μM
Description: The prototype drug Purinostat was tested for its inhibitory activity against 89 kinases that are strongly associated with tumors.

[1] = Metabolite profiling in plasma, bile, urine, feces; assay type: in vivo, SD rats; conditions: for share of plasma AUC0-96h: [14C] 3 mg/100 µCi/kg i.v.; for amount in bile, % of administered dose: 0 to 72 hours; for amount in feces, % of administered dose / amount in urine, % of administered dose: 0 to 168 hours
Description: Following a single intravenous administration of [14C] Purinostat Mesylate at a dose of 3 mg/100 µCi/kg in male and female rats, a total of 14 metabolites were identified, in addition to the parent compound. These were designated as M382, M396, M474, M475, M490, M516, M517, M532, M546, M548, M558, M666, M708a, and M708b. Among these, M382 is an acetylated product of the parent drug after N-dealkylation, M396 is a carboxylic acid derivative of M382, M474 is a reduction product of the parent drug, M475 is a hydroxylated product derived from the amino conversion of M474, M490 is a mono-oxidation product of M474, M516 is an acetylated product of M474, M517 is a hydroxylated product derived from the amino conversion of M516, M532 is an acetylated product of the parent drug, M546 is a methylated product of M532, M548 is a dioxidation product of M516, M558 is a glucuronic acid conjugate of M382, M666 is a glucuronic acid conjugate of the parent drug, M708a is a mono-oxidation glucuronic acid conjugate of M516, and M708b is a glucuronic acid conjugate of M532.

r/r DLBCL = conditions: cited from earlier work
[2] = tested on: human double-hit lymphoma SUDHL-6; test: SUDHL-6 subcutaneous tumor model; assay type: in vivo, NOD/SCID mice; conditions: positive control groups
mouse B-cell lymphoma = test: Ighmyc transgenic B-cell lymphoma model, survival; assay type: in vivo, mice; conditions: positive control groups
[3] = tested on: BCR-ABL positive B-ALL PDX; test: PDX model of clinical B-ALL patient; assay type: in vivo, NOD/SCID mice; conditions: positive control
Text: A clinical sample from a B-ALL patient was obtained, characterized by BCR-ABL positivity and relapse after first-line treatment.

HDAC IIa/IV = tested on: HDAC IIa/IV; design: method as in PMID 27186676, PMID 31439580; conditions: range over isoforms; read-out: IC50 against HDAC IIa/IV; cited from earlier work
[4] = tested on: diffuse large B-cell lymphoma (DLBCL) cells from patient C; test: Cell apoptosis analysis, primary cells; assay type: cell-based, human; conditions: 5 nM, 48 h
Description: (§1) CD138^+, CD38^+, or CD20^+ primary cells were obtained from plasma cell leukemia patients and DLBCL patients who had relapsed after multiple drug therapies. These patient samples were sourced from West China Hospital and had been approved by the clinical ethics committee of West China Hospital of Sichuan University (Chengdu, China). The clinical information of these patients was summarized in Supplementary Table 2. The patient primary cells were cultured in 6-well plates at a density of 1×10^6 cells/mL, and treated with control, PM, panobinostat, Pom and DXM at indicated concentrations for 48 hours. CD138, CD38, and CD20 monoclonal antibodies, Annexin V-APC and 7AAD apoptosis detection kits were used following the manufacturer’s instructions. The apoptosis cells were analyzed by flow cytometry (Thermo, AttuneTMNxT).

[5] = tested on: primary MM cells from relapsed patients A and B; test: Cell apoptosis analysis, primary cells; assay type: cell-based, human; conditions: 5 nM, 48 h
Description: as §1

HDAC I/IIb = tested on: HDAC I/IIb; design: method as in PMID 27186676, PMID 31439580; conditions: range over isoforms; read-out: IC50 against HDAC I/IIb; cited from earlier work
[6] = tested on: human multiple myeloma RPMI-8226; assay type: in vivo
[7] = molecular target: human ether-à-go-go-related gene (hERG) channel (Homo sapiens, UniProt Q12809); test: hERG inhibition; assay type: biochemical
MM1S xenograft = MM1S xenograft mouse model; assay type: in vivo, NOD-SCID mice
Raji = test: Cell viability CCK8; assay type: cell-based; conditions: Homo sapiens, 72 h, no unit in table, read-out: Antiproliferative activity IC50
Description: (§2) PM, panobinostat, Pom and DXM were dissolved in DMSO and stored at -20°C freezer. Cells were seeded at a density of 1.0-3.0 × 10^4 cells/well/100 μL in 96-well plates. After overnight incubation, cells were treated with the drug-containing culture medium for 24, 48, or 72 hours, and cell viability was measured using CCK8 (Oriscience, Chengdu, China) at the indicated time points with Biotek Cytation 3 at a wavelength of 450 nm. The IC50 values were calculated using GraphPad Prism 9.4.1, and Calcusyn 2.0 software was employed to calculate the CI values.

SUDHL-4 = test: Cell viability CCK8; assay type: cell-based; conditions: Homo sapiens, SU-DHL-4; SUDHL-4, 72 h; no unit in table; read-out: Antiproliferative activity IC50
Description: as §2

Ramos = test: Cell viability CCK8; assay type: cell-based; conditions: Homo sapiens, 72 h, no unit in table, read-out: Antiproliferative activity IC50
Description: as §2

AMO1 = test: Cell viability CCK8; assay type: cell-based; conditions: Homo sapiens; AMO1, 72 h; no unit in table; read-out: Antiproliferative activity IC50
Description: as §2

TMD-8 = test: Cell viability CCK8; assay type: cell-based; conditions: Homo sapiens, TMD8; TMD-8, 72 h; no unit in table; read-out: Antiproliferative activity IC50
Description: as §2

OPM2 = test: Cell viability CCK8; assay type: cell-based; conditions: Homo sapiens, OPM-2; OPM2, 72 h; no unit in table; read-out: Antiproliferative activity IC50
Description: as §2

NKYS = test: Cell viability CCK8; assay type: cell-based; conditions: Homo sapiens, 72 h, no unit in table, read-out: Antiproliferative activity IC50
Description: as §2

RPMI-8226 = test: Cell viability CCK8; assay type: cell-based; conditions: Homo sapiens; RPMI-8226, 72 h; no unit in table; read-out: Antiproliferative activity IC50
Description: as §2

MM1R = test: Cell viability CCK8; assay type: cell-based; conditions: Homo sapiens, MM.1R, 72 h, no unit in table, read-out: Antiproliferative activity IC50
Description: as §2

Daudi = test: Cell viability CCK8; assay type: cell-based; conditions: Homo sapiens, 72 h, no unit in table, read-out: Antiproliferative activity IC50
Description: as §2

MM1S = test: Cell viability CCK8; assay type: cell-based; conditions: Homo sapiens, MM1.S, 72 h, no unit in table (b9: nM), read-out: Antiproliferative activity IC50
Description: as §2

ARD = test: Cell viability CCK8; assay type: cell-based; conditions: Homo sapiens, 72 h, no unit in table, read-out: Antiproliferative activity IC50
Description: as §2

Karpas299 = test: Cell viability CCK8; assay type: cell-based; conditions: Homo sapiens, KARPAS-299; Karpas299, 72 h; no unit in table; read-out: Antiproliferative activity IC50
Description: as §2

RL = test: Cell viability CCK8; assay type: cell-based; conditions: Homo sapiens, 72 h, no unit in table, read-out: Antiproliferative activity IC50
Description: as §2

RPMI-8226R = test: Cell viability CCK8; assay type: cell-based; conditions: Homo sapiens, 72 h, no unit in table, read-out: Antiproliferative activity IC50
Description: as §2

KMS-11 = test: Cell viability CCK8; assay type: cell-based; conditions: Homo sapiens; KMS-11, 72 h; no unit in table; read-out: Antiproliferative activity IC50
Description: as §2

[8] = positive controls and combinations (PM 5 mg/kg in combinations)

Sequence of human ether-à-go-go-related gene (hERG) channel (Q12809 whole entry): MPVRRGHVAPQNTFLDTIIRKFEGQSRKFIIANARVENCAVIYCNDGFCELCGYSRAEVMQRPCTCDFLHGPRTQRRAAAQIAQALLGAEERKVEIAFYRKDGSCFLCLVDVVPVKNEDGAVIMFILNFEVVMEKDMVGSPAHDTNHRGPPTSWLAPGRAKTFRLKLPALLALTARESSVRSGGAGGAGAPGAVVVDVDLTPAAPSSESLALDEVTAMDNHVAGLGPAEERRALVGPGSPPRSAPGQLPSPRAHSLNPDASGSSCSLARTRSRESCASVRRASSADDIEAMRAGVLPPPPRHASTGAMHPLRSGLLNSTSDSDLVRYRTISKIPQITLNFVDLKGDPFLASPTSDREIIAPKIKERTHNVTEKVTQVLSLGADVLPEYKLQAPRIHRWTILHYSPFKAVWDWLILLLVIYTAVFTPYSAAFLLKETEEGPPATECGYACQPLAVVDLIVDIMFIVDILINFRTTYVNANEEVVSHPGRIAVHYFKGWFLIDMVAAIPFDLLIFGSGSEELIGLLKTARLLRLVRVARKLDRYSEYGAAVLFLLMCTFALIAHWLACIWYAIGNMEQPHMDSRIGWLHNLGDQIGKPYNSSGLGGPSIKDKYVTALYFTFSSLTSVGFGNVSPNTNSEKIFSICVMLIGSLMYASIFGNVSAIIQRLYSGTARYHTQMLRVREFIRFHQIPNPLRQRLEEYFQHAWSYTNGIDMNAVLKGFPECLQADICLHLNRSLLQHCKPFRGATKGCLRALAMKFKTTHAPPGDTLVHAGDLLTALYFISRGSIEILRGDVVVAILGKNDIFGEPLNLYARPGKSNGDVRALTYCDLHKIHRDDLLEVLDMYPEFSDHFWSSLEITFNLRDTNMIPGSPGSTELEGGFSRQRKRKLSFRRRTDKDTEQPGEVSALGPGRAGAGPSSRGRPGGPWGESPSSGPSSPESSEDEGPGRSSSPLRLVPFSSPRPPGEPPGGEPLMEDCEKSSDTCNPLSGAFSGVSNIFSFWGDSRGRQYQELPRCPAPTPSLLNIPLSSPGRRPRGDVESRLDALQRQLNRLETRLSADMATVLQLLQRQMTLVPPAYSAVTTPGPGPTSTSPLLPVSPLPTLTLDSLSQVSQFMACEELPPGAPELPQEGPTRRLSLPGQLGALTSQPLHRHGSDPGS

SMILES: C/C=C1\NC(=O)[C@H]2CSSCC/C=C/[C@H](CC(=O)N[C@H](C(C)C)C(=O)N2)OC(=O)[C@H](C(C)C)NC1=O [romidepsin]
response, monotherapy in r/r MM (r/r MM; phase II): 4/12 patients SD

SMILES: CN(Cc1nc2c(N3CCOCC3)nc(-c3ccc(N)cc3)nc2n1C)c1ncc(C(=O)NO)cn1 [Purinostat]
inhibitory activity against 89 kinases (89 kinases): no significant inhibitory activity

share of plasma AUC0-96h ([1]; female rats): 4.71% to 9.05
amount in bile, % of administered dose ([1]; females): 1.16% to 3.30
amount in feces, % of administered dose ([1]; females): 0.79% to 5.53
share of plasma AUC0-96h ([1]; male rats): 4.85% to 6.67
amount in bile, % of administered dose ([1]; males): 0.97% to 4.38
amount in feces, % of administered dose ([1]; males): 1.27% to 6.00
SMILES: CONC(=O)c1cnc(N(C)Cc2nc3c(N4CCOCC4)nc(-c4ccc(NC(C)=O)cc4)nc3n2C)nc1 [M546]

SMILES: O=C(/C=C/c1cccc(S(=O)(=O)Nc2ccccc2)c1)NO [belinostat]
ORR in r/r DLBCL (r/r DLBCL; SWOG S0520): 10.5%

share of plasma AUC0-96h ([1]; female rats): 4.71% to 9.05
share of plasma AUC0-96h ([1]; male rats): 4.85% to 6.67
SMILES: CN(Cc1nc2c(N3CCOCC3)nc(-c3ccc(N)cc3)nc2n1C)c1ncc(C(=O)O)cn1 [M475]

SMILES: O=C(CCCCCCC(=O)Nc1ccccc1)NO [vorinostat]
ORR in r/r DLBCL (r/r DLBCL): 6%
response, monotherapy in r/r MM (r/r MM; phase I): 1 MR in 10 patients

share of plasma AUC0-96h ([1]; female rats): 15.61%
amount in bile, % of administered dose ([1]; females): 5.77% to 7.49
amount in feces, % of administered dose ([1]; females): 30.10%
amount in urine, % of administered dose ([1]; females): 2.35% to 2.49
share of plasma AUC0-96h ([1]; male rats): 17.42%
amount in bile, % of administered dose ([1]; males): 4.75% to 8.74
amount in feces, % of administered dose ([1]; males): 27.70%
amount in urine, % of administered dose ([1]; males): 0.88% to 3.01
SMILES: CC(=O)Nc1ccc(-c2nc(N3CCOCC3)c3nc(CN(C)c4ncc(C(N)=O)cn4)n(C)c3n2)cc1 [M516]

SMILES: Cc1[nH]c2ccccc2c1CCNCc1ccc(/C=C/C(=O)NO)cc1 [panobinostat, reference compound]
T/C [2]: 92.55±13.13%
tumor inhibition rate [2]: 12.92%
median survival time (mouse B-cell lymphoma): 20 days
median survival time [3]: 17 days
IC50 (HDAC IIa/IV): 2.7 to 531 nM
apoptosis [4]: 20.49%
apoptosis ([5]; patient A): 54.5%
apoptosis ([5]; patient B): 40.1%
IC50 (HDAC I/IIb): 2.1 to 277 nM
T/C [6, 8]: 35.1%
tumor inhibition rate [6, 8]: 59.79%
median survival time ([6]; satellite groups, PM 5 mg/kg alone or combined, control regimens): 52.5 days
IC50 [7]: 3500 nM
tumor inhibition rate (MM1S xenograft; 10 mg/kg i.v. three times a week): 49.37%
relative tumor growth rate T/C (MM1S xenograft; positive control groups): 45.1%
tumor inhibition rate (MM1S xenograft; positive control groups, regimens per Table S9): 49.37%
median survival time (MM1S xenograft; satellite group, positive control): 26.5 days
response, monotherapy in r/r MM (r/r MM; phase II): 1 PR and 1 MR in 38 patients
IC50 (Raji): 5.48 ± 4.81 nM
IC50 (SUDHL-4): 6.72 ± 0.49 nM
IC50 (Ramos): 5 ± 0.53 nM
IC50 (AMO1): 3.45 ± 0.5 nM
IC50 (TMD-8): 9.12 ± 0.25 nM
IC50 (OPM2): 4.4 ± 0.27 nM
IC50 (NKYS): 4.81 ± 0.14 nM
IC50 (RPMI-8226): 9.3 ± 0.55 nM
IC50 (MM1R): 0.87 ± 0.01 nM
IC50 (Daudi): 6.99 ± 3.9 nM
IC50 (MM1S): 2.87 ± 0.12 nM
IC50 (ARD): 1.82 ± 0.16 nM
IC50 (Karpas299): 4.03 ± 0.2 nM
IC50 (RL): 6.43 ± 0.45 nM
IC50 (RPMI-8226R): 5.56 ± 0.49 nM
IC50 (KMS-11): 7.94 ± 0.59 nM

share of plasma AUC0-96h ([1]; female rats): 13.75%
amount in bile, % of administered dose ([1]; females): 1.16% to 3.30
amount in feces, % of administered dose ([1]; females): 0.79% to 5.53
amount in urine, % of administered dose ([1]; females): 0.43% to 0.87
share of plasma AUC0-96h ([1]; male rats): 13.79%
amount in bile, % of administered dose ([1]; males): 0.97% to 4.38
amount in feces, % of administered dose ([1]; males): 1.27% to 6.00
amount in urine, % of administered dose ([1]; males): 1.02% to 1.92
SMILES: CN(Cc1nc2c(N3CCOCC3)nc(-c3ccc(N)cc3)nc2n1C)c1ncc(C(N)=O)cn1 [M474]

amount in bile, % of administered dose ([1]; females): 1.16% to 3.30
amount in feces, % of administered dose ([1]; females): 0.79% to 5.53
amount in bile, % of administered dose ([1]; males): 0.97% to 4.38
amount in feces, % of administered dose ([1]; males): 1.27% to 6.00
SMILES: CC(=O)Nc1ccc(-c2nc(N3CCOCC3)c3nc(CN(C)c4ncc(C(=O)O)cn4)n(C)c3n2)cc1 [M517]

share of plasma AUC0-96h ([1]; female rats): 4.71% to 9.05
amount in urine, % of administered dose ([1]; females): 0.43% to 0.87
share of plasma AUC0-96h ([1]; male rats): 4.85% to 6.67
amount in urine, % of administered dose ([1]; males): 1.02% to 1.92
SMILES: CC(=O)Nc1ccc(-c2nc(N3CCOCC3)c3nc(CN(C)c4ncc(C(=O)NO)cn4)n(C)c3n2)cc1 [M532]
